Here are results for 4 compounds from the NIST ThermoML archive (doi:10.1021/je9004189).

SMILES strings stand for the structures. ± gives the expanded uncertainty stated by the source.

For series [1] the following is noted: 293.15 K, 101.33 kPa, Liquid.
A short description of series [2]: refractive index (Na D-line) (dimensionless). Particulars: 293.15 K; 101.33 kPa; Liquid; Standard Abbe refractometry.

On to `CCO` [ethanol], for which the mass density (commonly mass per unit of volume) in series [1] (Vibrating tube method) is 790 ± 1 kg/m3. In addition, in series [2], the refractive index (as a rule, the speed of light in vacuum divided by its phase velocity in the sample) is recorded as 1.366 ± 0.0007.

In the case of `CO` [methanol], the mass density in series [1] (Vibrating tube method) came to 792 ± 1 kg/m3. In addition, the refractive index in series [2] was 1.3301 ± 0.0007.

In the case of `CC(C)=O` [acetone], in series [1], the mass density stood at 790 ± 1 kg/m3. Further, the refractive index in series [2] is 1.359 ± 0.0007.

`c1ccccc1` [benzene]: the mass density in series [1] (Vibrating tube method) is 879 ± 1 kg/m3. In addition, in series [2], the refractive index was 1.5011 ± 0.0007.
